The values below come from US9045429B2, “Substituted phenoxypyridines” (Bayer Intellectual Property GmbH, priority 2010, dated 2015).

Experiment [1] has as its system HCT116 cells. Briefly: HCT116 Cell Titer Glo (CTG) Proliferation Assay [Assay 1]. In kind it is cell-based. Conditions: HCT-116, HCT116 human colorectal cells, 72 hours incubation. The source says:
Cell Titer Glo Proliferation Assay
The adherent tumor cell proliferation assay used to test the compounds of the present invention involves a readout called Cell Titre-Glo developed by Promega (Cunningham, BA “A Growing Issue: Cell Proliferation Assays. Modern kits ease quantification of cell growth” The Scientist 2001, 15(13), 26, and Crouch, S P et al., “The use of ATP bioluminescence as a measure of cell proliferation and cytotoxicity” Journal of Immunological Methods 1993, 160, 8 1-88).
Assay 1: HCT116 Cell Titer Glo (CTG) Proliferation Assay:
(§1) HCT116 cells [human colorectal cell line, expressing mutant […]] were plated at a density of 3000 cells/well in 96 well black-clear bottom tissue culture plates (Costar 3603 black/clear bottom) in 100 μl/well DMEM medium (DMEM/Ham's F12) with 10% Fetal Bovine Serum (FBS) and stable Glutamine incubated at 37° C. Sister wells were plated in separate plate for time zero determination. All plates were incubated overnight at 37° C. Take down time zero plate: 100 μl/well CTG solution (Promega Cell Titer Glo solution) were added to time zero wells in sister plate; the plates were mixed for 2 min on orbital shaker to ensure cell lysis, incubated for 10 minutes, luminescence was read on VICTOR 3 (Perkin Elmer). Twenty-four hours after cell seeding, test compounds were diluted in 50 μl medium and were added at a final concentration range from as high 10 μM to as low 300 pM depending on the activities of the tested compounds in serial dilutions at a final DMSO concentration of 0.4%. Cells were incubated for 72 hours at 37° C. after addition of the test compound. Then, using a Promega Cell Titer Glo Luminescent® assay kit, 100 μl microliter lysis buffer containing of the enzyme luciferase and its substrate, luciferin mixture, were added to each well and incubated for 10 min at room temperature in the dark to stabilize luminescence signal. The samples were read on VICTOR 3 (Perkin Elmer) using Luminescence protocol. The percentage change in cell growth was calculated by normalizing the measurements to the extinctions of the zero point plate (=0%) and the extinction of the untreated (0 μM) cells (=100%). The IC50 values were determined by means of a 4-parameter fit using the company's own software.
(ATP-based viability assays read luminescence as a measure of living cells.)

Experiment [2] concerns A375 cells. Briefly: A375 Crystal Violet (CV) Proliferation Assay [Assay 5]. The note with it: A-375, 96 h; A375 human melanoma cells (BRAF V600E), crystal violet staining, 4 days incubation. Format: cell-based. As to the method: Assay 5: A375 Crystal Violet (CV) Proliferation Assay:
Cell proliferation for A375 cells [human melanoma cell line, expressing mutant BRAF V600E] was measured by crystal violet (CV) staining: Cultivated human A375 cells were plated out in a density of 1500 cells/measurement point in 200 μl of growth medium (DMEM/HAMS F12 with 10% FBS and 2 mM Glutamine) in a 96-well multititer plate. After 24 hours, the cells from a plate (zero plate) were stained with crystal violet (see below), while the medium in the other plates was replaced by fresh culture medium (200 μl) to which the test substances had been added in various concentrations (0 μM, and in the range 0.3 nM-30 μM; the final concentration of the solvent dimethyl sulphoxide was 0.5%). The cells were incubated in the presence of the test substances for 4 days. The cell proliferation was determined by staining the cells with crystal violet: the cells were fixed by adding 20 μl/measurement point of an 11% glutaraldehyde solution at room temperature for 15 min. After the fixed cells had been washed three times with water, the plates were dried at room temperature. The cells were stained by adding 100 μl/measurement point of a 0.1% crystal violet solution (pH adjusted to pH 3 by adding acetic acid). After the stained cells had been washed three times with water, the plates were dried at room temperature. The dye was dissolved by adding 100 μl/measurement point of a 10% acetic acid solution, and the extinction was determined by photometry at a wavelength of 595 nm. The percentage change in cell growth was calculated by normalizing the measurements to the extinctions of the zero point plate (=0%) and the extinction of the untreated (0 μM) cells (=100%). The IC50 values were determined by means of a 4-parameter fit using the company's own software.

Experiment [3] concerns A549 cells. As to the kind of experiment: A549 Cell Titer Glo (CTG) Proliferation Assay [Assay 2]. Format: cell-based. The note with it: A549 human non small cell lung cancer cells (K-Ras G12S), 72 hours incubation. As to the method: as §1
Assay 2: A549 Cell Titer Glo (CTG) Proliferation Assay:
A549 cells [human non small cell lung cancer cell line, expressing mutant K-Ras G12S] were seeded at a density of 2000 cells/well in 96 well black-clear bottom tissue culture plates (Costar 3603 black/clear bottom) in 100 μl/well DMEM medium (DMEM/Ham's F12) with 10% Fetal Bovine Serum (FBS) and stable Glutamine incubated at 37° C. Cell Titer Glo proliferation assays for A549 cells were performed with the same protocol as described afore for HCT116 cells.

Experiment [4] relates to colon cancer. Conditions: oral treatment, mouse models, literature [18]; cited from earlier work.
For experiment [5], the system named is MEK1/2. Conditions: MEK1/2 inhibitor, literature [17]; cited from earlier work.

`NC(=O)c1c(Nc2ccc(I)cc2F)cncc1Oc1ccc2oc(=O)[nH]c2c1` [Example 1, 3-[(2-fluoro-4-iodophenyl)amino]-5-[(2-oxo-2,3-dihydro-1,3-benzoxazol-5-yl)oxy]isonicotinamide]: the IC50 (commonly the concentration that inhibits the measured activity by half) in experiment [1] was determined as 45 nM; in experiment [2] it was 2.31 nM; in experiment [3], 59 nM.

On to `NC(=O)c1c(Nc2ccc(I)cc2F)cncc1Oc1cccc(N)c1` [Example 3, 3-(3-aminophenoxy)-5-[(2-fluoro-4-iodophenyl)amino]isonicotinamide], for which the values for the IC50 in experiment [1], in experiment [2] and in experiment [3] were 214 nM, 0.676 nM and 377 nM, respectively.

For the compound `CC(C)S(=O)(=O)Nc1cccc(Oc2cncc(Nc3ccc(I)cc3F)c2C(N)=O)c1` [Example 4, 3-[(2-fluoro-4-iodophenyl)amino]-5-{3[(isopropylsulfonyl)amino]phenoxy}isonicotinamide], the results for the IC50 in experiment [1], in experiment [2] and in experiment [3] were 11.1 nM, 0.411 nM and 14.3 nM, respectively.

`CS(=O)(=O)Nc1cccc(Oc2cncc(Nc3ccc(I)cc3F)c2C(N)=O)c1` [Example 5, 3-[(2-fluoro-4-iodophenyl)amino]-5-{3-[(methylsulfonyl)amino]phenoxy}isonicotinamide]: the IC50 in experiment [1] turned out to be 18.8 nM; in experiment [2] it was 0.775 nM; in experiment [3] it was 22.7 nM.

For `CCS(=O)(=O)Nc1cccc(Oc2cncc(Nc3ccc(I)cc3F)c2C(N)=O)c1` [Example 6, 3-{3-[(ethylsulfonyl)amino]phenoxy}-5-[(2-fluoro-4-iodophenyl)amino]isonicotinamide], the IC50 was determined as 11 nM in experiment [1], 15.3 nM in experiment [2] and 14.8 nM in experiment [3].

Consider `NC(=O)c1c(Nc2ccc(I)cc2F)cncc1Oc1cccc(NS(=O)(=O)C2CC2)c1` [Example 7, 3-{3-[(cyclopropylsulfonyl)amino]phenoxy}-5-[(2-fluoro-4-iodophenyl)amino]isonicotinamide], for which the IC50 was found to be 9.71 nM in experiment [1], 15.2 nM in experiment [2] and 17 nM in experiment [3].

As for `CC(=O)Nc1cccc(Oc2cncc(Nc3ccc(I)cc3F)c2C(N)=O)c1` [Example 8, 3-(3-acetamidophenoxy)-5-[(2-fluoro-4-iodophenyl)amino]isonicotinamide], the IC50 in experiment [1] was determined as 195 nM; in experiment [2] it was 4.92 nM; in experiment [3] it was 335 nM.

As to `CCC(=O)Nc1cccc(Oc2cncc(Nc3ccc(I)cc3F)c2C(N)=O)c1` [Example 9, 3-[(2-fluoro-4-iodophenyl)amino]-5-[3-(propionylamino)phenoxy]isonicotinamide], the results for the IC50 in experiment [1], in experiment [2] and in experiment [3] were 440 nM, 8.8 nM and 882 nM, respectively.

For `CC(C)C(=O)Nc1cccc(Oc2cncc(Nc3ccc(I)cc3F)c2C(N)=O)c1` [Example 10, 3-[(2-fluoro-4-iodophenyl)amino]-5-[3-(isobutyrylamino)phenoxy]isonicotinamide], the IC50 in experiment [1] turned out to be 1120 nM; in experiment [2] it was 21.5 nM; in experiment [3], 1670 nM.

Regarding `CC(C)(O)C(O)CCOc1cncc(Nc2ccc(I)cc2F)c1C(N)=O` (stereo not shown) [Example 12, 3-[(3,4-dihydroxy-4-methylpentyl)oxy]-5-[(2-fluoro-4-iodophenyl)amino]isonicotinamide], in experiment [2], the IC50 worked out at 33.3 nM.

Turning to `C#Cc1ccc(Nc2cncc(Oc3cccc(NS(=O)(=O)CC)c3)c2C(N)=O)c(F)c1` [Example 14, 3-{3-[(ethylsulfonyl)amino]phenoxy}-5-[(4-ethynyl-2-fluorophenyl)amino]isonicotinamide], the IC50 in experiment [1] worked out at 33.6 nM; in experiment [2], 1.25 nM; in experiment [3], 49.8 nM.

Turning to `COc1cncc(Nc2ccc(I)cc2F)c1C(N)=O` [Example 15, 3-[(2-fluoro-4-iodophenyl)amino]-5-methoxyisonicotinamide], in experiment [2], half-maximal inhibition (IC50) was put at 118 nM.

Regarding `O=C(NOCC1CC1)c1ccc(F)c(F)c1Nc1ccc(I)cc1Cl` [PD184352], the “colon cancer growth in vivo” value in experiment [4] is recorded as “inhibit colon cancer growth”. For the same compound, the IC50 entry in experiment [5] is given as “low nanomolar range”.
